Source: US7122335B1, “Compounds and methods to enhance rAAV transduction” (priority 1999, dated 2006)

Key:
[1] = system: human bronchial epithelia; assay: Southern blot of Hirt DNA for rAAV genomes in polarized airway epithelia; format: cell-based
Experimental: FIGS. 15A–C. Examination of rAAV endocytosis by Southern blot analysis of viral DNA. Hirt DNA from AV.GFP3ori infected or mock infected (Lanes 1 and 7 in both FIGS. 15A and 15B) human bronchial epithelia were extracted for a direct examination of viral genomes by Southern blotting against a P^32-labeled EGFP probe. FIG. 15A depicts viral binding studies in the presence and absence of LLnL with or without EGTA treatment prior to apical or basolateral infection for 1 hour at 4° C. Cell surface-bound virus was completely removed by trypsin (FIG. 15A, lanes 2 through 6). To determine the amount of the surface-bound rAVV, cells were infected with AV.GFP3ori for 1 hour at 4° C. and were not treated with trypsin prior to Hirt DNA extraction. Panel A: lane 8: apical AAV infection; lane 9: apical AAV infection in the presence of LLnL; lane 10: cells were pre-treated with hypotonic EGTA prior to apical infection in the presence of LLnL; lane 11: basolateral infection; lane 12: basolateral infection in the presence of LLnL. FIG. 15B depicts the results of studies evaluating rAAV internalization from either the apical or the basolateral surface in the presence or absence of LLnL, and the internalization from the apical surface after combined treatment with hypotonic EGTA and LLnL. To detect the net amount of the internalized viral genome, all samples in FIG. 15B were treated with trypsin just before Hirt DNA was harvested. The extent of the internalized virus at 4 hours (FIG. 15B, lanes 2 through 6) and 24 hours (FIG. 15B, lanes 8 through 12) incubation at 37° C. after infection is represented by the intensity of the 1.6 kb single stranded viral genome band. FIG. 15B; lane 2; apical AAV infection for 4 hours; lane 3: apical AAV infection in the presence of LLnL for 4 hours; lane 4: cells were pre-treated with hypotonic EGTA prior to apical infection in the presence of LLnL for 4 hours; lane 5: basal infection for 4 hours; lane 6: basolateral infection in the presence of LLnL for 4 hours; lane 8: apical infection for 24 hours; lane 9: apical infection in the presence of LLnL for 24 hours; lane 10: cells were pre-treated with hypotonic EGTA prior to apical infection in the presence of LLnL for 24 hours; lane 11: basolateral infection for 24 hours; lane 12: basolateral infection in the presence of LLnL for 24 hours. […]
Molecular analysis of rAAV viral genomes owing infection of polarized airway epithelial cultures. […] Following binding, the extent of viral internalization was assessed by continuing incubations in the presence of virus at 37° C. for 4–24 hours. […] The 1.6 kb single stranded viral DNA, the 2.7 kb double stranded circular intermediate, and the 4.7 kb double stranded replication from viral genome were detected with a transgene EGFP specific probe at 5×10^6 cpm/ml. […]

[2] = system: polarized human bronchial epithelia; assay: S35-labeled rAAV binding/entry assay in polarized bronchial epithelia; format: cell-based
Experimental: FIGS. 12A and 12B. Binding and uptake of S^35-labeled AV.GFP3ori in fully differentiated human bronchial epithelia. The ability of polarized bronchial epithelia to bind and internalize virus from the apical or the basolateral surfaces was quantified using S^35-labeled rAAV. The binding assay was performed after incubation with virus at 4° C. for 1 hour, followed by repeated washing in PBS. The combined bound and internalized virus was quantified following incubation with virus at 4° C. for 1 hour, and subsequent incubation at 37° C. for 2 hours and 24 hours. Non-specific background binding of radiolabeled virus was determined in parallel studies on collagen coated empty chambers not seeded with bronchial cells. Background counts (averaging 15.67+/−5.17 cpm/well) were subtracted from experimental sample counts prior to analysis. Data in the right side of each figure is presented as the net cpms of bound/internalized virus (raw counts minus background counts of empty transwells). The results represent the mean (+/−SEM) of 6 independent transwells for each condition. Experiments were performed in triplicate from two independent tissue samples. The significance of the differences between each pair of samples (with or without LLnL) was evaluated using the Student's t-test and p-values are provided in brackets above the data for each condition. To correlate uptake of radioactive virus with the functional expression the rAAV encoded transgene, GFP expression from the same set of samples was quantified at 24 hour post-infection by indirect fluorescent microscopy. […]
Viral binding/entry assays and in situ localization of viral particles. […] Combined binding/entry of rAAV into differentiated airway epithelia was measured under the same conditions, except that the cultures were incubated at 37° C. for an additional 2–24 hours before they were harvested. […] After washing three times in PBS, cells were lysed in situ by the addition of 5 ml of liquid scintillation cocktail at room temperature for 5 minutes, and the radioactivity was quantitated in a scintillation counter.

With “N-acetyl-L-leucinyl-L-leucinal-L-norleucinal [LLnL]” the “rAAV binding to either surface (Southern blot)” value ([1]; 1 hour at 4° C.) was “not affected”, the “enzymatic degradation of internalized AAV viral DNA” value ([1]; LLnL alone) was “did not substantially prevent enzymatic degradation” and the “amount of virus internalized from apical surface” value ([1]; hypotonic EGTA pretreatment and LLnL) was “substantially increased the amount of virus internalized”. The “uptake of S35 labeled rAAV” value ([2]; 2 hour infection period at 37° C.) was “not altered”, the “amount of intracellular radioactivity” value ([2]; 24 hours post-infection, either surface infected) was “very significant decrease” and the “4° C. rAAV binding” value ([2]; S35 labeled rAAV, with or without LLnL) was “no significant effect”.
